Assay results: patent publication US20170304169A1, “USE OF A COSMETIC COMPOSITION COMPRISING 10-HYDROXYSTEARIC ACID” (DSM IP ASSETS B.V., priority 2014, published 2017)

Tests used:
Format in all cases: cell-based
[1] = system: Collagen 1; experiment: Collagen 1 synthesis in normal human fibroblasts (immunofluorescence, high content imaging); settings: 48 h, primary human fibroblasts; for collagen 1 induction (in words): increasing amounts of compound
Description: (§1) Human dermal fibroblasts isolated from a biopsy of a donor (Fb-D) were maintained in Dulbecco's modified Eagle's medium high glucose (DMEM) containing 10% fetal calf serum (FCS) and 1% penicillin/streptomycin (P/S). Cells were cultivated at 37° C. in a humidified 5% CO2-air atmosphere.
Human dermal fibroblasts were pre-cultured in DMEM 10% FCS 1% P/S for 24 h before being starved in DMEM low glucose containing 0.2% FCS and 1% P/S for 2.5 days. Starvation medium was then replaced and solubilized compounds were added and incubated for 48 h. After compound incubation cells were fixed in DPBS containing 4% formaldehyde for 15 min and permeabilized with DPBS 0.1% Triton-X100 for 90 sec. Collagen 1 was detected using mouse anti human collagen 1 antibody and the first antibody was detected with AlexaFluor 488 conjugated goat anti-mouse IgG. We counterstained nuclei with DAPI. Stained cells were analysed with the Thermo Fisher High Content Imaging System. There were acquired 49 pictures per well with a 10× objective and images were subsequently analysed using the “CellHealthProfiling” bioapplication v4. Collagen 1 was measured in a defined region around the nucleus and the fluorescence intensity values were normalized to cell count.
Following a pre-culture period, primary human fibroblasts were incubated for 48 h with increasing amounts of compound. Cells were then fixed and collagen 1 protein level was assessed by immunofluorescence. The experiment was repeated twice. After starvation fibroblasts were incubated for 48 h with increasing amounts of compound. TGF-β1 serves as positive control. Values given are fold collagen 1 induction compared with control cells. […] Collagen 1 induction reached 2.2 fold induction when 10-HSA was used at 5 μM.

[2] = system: Type III collagen; experiment: Collagen 3 synthesis in normal human fibroblasts (immunofluorescence, ArrayScan); settings: 48 h, human dermal fibroblasts
Description: Human dermal fibroblasts obtained from adult skin (donor) were seeded into 96-well plates (4000 cells/well) and cultured in Dulbecco's Modified Eagle Medium (DMEM) with 10% fetal calf serum (FCS) and 1% Penicillin/Streptomycin (Life Technologies, Lucerne, Switzerland) at 37° C. with 5% CO2 for 24 h. After medium was changed with DMEM Low Glucose containing 0.2% FCS and 1% Pen/Strep, the cells were incubated for another 2.5 days. Then, starvation medium was replaced with fresh medium containing the test compounds. After 48 h incubation the cells were fixed in Dulbecco's Phosphate-Buffered Saline (DPBS) containing 4% formaldehyde (Life Technologies, Lucerne, Switzerland) for 15 min and permeabilized with 0.1% Triton-X100 in DPBS for 90 sec.
Collagen 3 was detected using rabbit anti-human Type III collagen (BioTrend, Cologne, Germany), followed by the AlexaFluor 488 conjugated secondary IgG antibody (goat anti-rabbit IgG, Life Technologies, Lucerne, Switzerland). […]
Stained cells were analysed with the ArrayScan VTI HCS Reader (Thermo Fisher Scientific, Waltham, Mass., USA). The total of 49 pictures per well was acquired with a 10× objective and images were subsequently analysed using the “CellHealthProfiling” bioapplication v4. Collagen was measured in a defined region around the nucleus and the fluorescence intensity values were normalized to the cell count. […]

[3] = system: Human skin from abdominal plastic surgery; experiment: Skin viability (MTT) in human skin organ culture; settings: topical, 0.1, 1 and 10 mg/ml, day 6, MTT
Description: (§2) Human skin from abdominal plastic surgery has been used (donor[…]). Informed consent has been obtained. The skin phototype has been assayed with a spectro-colorimeter and classified as “BROWN” (ITA° angle=9.3°) (pigmentation scale: very light<light<intermediate<tanned<brown<dark) (Del Bino et al., Pigment Cell Research, 19. 2006).
(§3) The skin samples have been cut in pieces of approximately 8×3 mm (ø×thickness) and cultured up to day 6. Fourteen skin specimens have been used for each treatment. Two skin samples have been cultured to perform the skin viability test, six to perform the skin pigmentation and the collagen analyses and six for the SBC test.
Skin samples have been cultured in an air-liquid interface in a perforated ring of stainless steel in contact with culture medium (modified Williams' E medium) up to day 6. The culture medium has been renewed every three days (i.e. day 0-3).
Both the test samples and the controls have been applied topically and renewed daily. […]
After 6 days of incubation two skin biopsies have been weighed and, in case, reduced in the dermal portion, in order to have approximately the same weight for all of them. […] Subsequently the blue crystals have been solubilized and the color intensity, that is directly proportional to skin vitality, has been measured with a plate reader at a wavelength of 570 nm. […]

[4] = system: p53; experiment: p53 detection and quantification in UVB-irradiated human skin organ culture; settings: 0.1 mg/ml, UVB (1 J/cm2), human skin explants
Description: Cell culture was performed as in example 12 above.
Skin sections have been stained with the antibody for p53 (Abcam, #ab7757). The p53 positive cells have been counted and the obtained value have been divided upon the area covered by epidermis. Two slides of each skin sample have been processed by image acquisition and related analysis (i.e. 12 images for each test treatment).
All quantitative data have been summarized in terms of the mean score for each treatment. The measures of variation as standard deviation and standard error of mean (SEM) have been applied to the original scores. Differences between groups were evaluated by One-way anova with permutation test followed by pairwise post-hoc comparisons—Dunnett's permutation test and pairwise post hoc comparisons—Tukey's HSD permutation tests.

[5] = system: Human dermal fibroblasts; experiment: Cytotoxicity measurement, MTT assay in human dermal fibroblasts; settings: normal human fibroblasts, 48 h
Description: as §1
Cytotoxicity was measured using the MTT assay according to the manufacturer's instructions. In brief: Fibroblasts (4000 cells/well, in 96-well cell culture plates from Nunc) were pre-cultured in DMEM 10% FCS 1% Penicillin/Streptomycin (P/S) for 24 h before being starved in DMEM low glucose containing 0.2% FCS and 1% P/S for 2.5 days. Starvation medium was then replaced and solubilized compounds were added and incubated for 48 h. Subsequently 10 μl MTT labelling reagent were added to each well (final concentration 0.5 mg/ml) and the microtiter plate was incubated for 4 h (37° C., 5% CO2). After addition of 100 μl solubilization solution into each well, the plate was allowed to stand overnight in the incubator (37° C., 5% CO2). The absorbance (OD) was measured in an absorbance plate reader at 550 nm.
Normal human fibroblasts treated with compounds for 48 h were assessed for viability using the MTT assay. Control values without compound were set to 100% viability.

[6] = system: Collagen 3; experiment: Collagen 3 immunostaining in human skin organ culture; settings: topical, human skin explants
Description: as §2, §3
Skin samples have been cultured in an air-liquid interface in a perforated ring of stainless steel in contact with culture medium (modified Williams' E medium) up to day 6. […]
Skin sections have been immune-stained with the selected antibody. The amount of the antigen present in each slide has been evaluated by estimating the intensity and the distribution of the red within a selected area of the dermis using Image J (NIH-USA). […]
All quantitative data have been summarized in terms of the mean score for each treatment. […] Differences between groups were evaluated by One-way anova with permutation test followed by pairwise post-hoc comparisons—Dunnett's permutation test and pairwise post hoc comparisons—Tukey's HSD permutation tests.

[7] = system: MMP-1; experiment: MMP-1 expression by RT-qPCR in UVB-irradiated human skin organ culture; settings: UVB (1 J/cm2), human skin explants
Description: Human skin from abdominal plastic surgery has been used (donor). Informed consent has been obtained. The skin phototype has been assayed with a spectro-colorimeter and classified as “LIGHT” (ITA° angle=50°) (pigmentation scale: very light<light<intermediate<tanned<brown<dark) (Del Bino et al., Pigment Cell Research, 19. 2006).
The skin samples have been cut in pieces of 8×3 mm (ø×thickness) and cultured up to day 2. Two skin samples for each treatment have been cultured to perform the MMP-1 analysis.
Skin samples have been cultured in an air-liquid interface in a perforated ring of stainless steel in contact with culture medium (modified Williams' E medium) up to day 2. The culture medium has been renewed every three days (i.e. day 0-3).
Both the test samples and the controls have been applied topically, renewed 1 hour prior of UVB irradiation. Right before the irradiation the treatments have been gently yet carefully removed from the skin samples. […]
For RT-qPCR analysis, total RNA have been extracted from full thickness skin using RNAeasy mini kit for fibrous tissues (Qiagen) following manufacturer's instructions. After quantification, 400 ng of total RNA have been retro-transcribed using random hexamers and Superscript III (Invitrogen). […]

SMILES	collagen 1 induction (in words) [1]	increase in type III collagen compared with medium treated cells ([2]; 5 μM)	type III collagen synthesis (in words) ([2]; p<0.01 relative to medium control)	skin viability [3]	p53 UV-induced stimulation vs DMSO UV [4]	cytotoxic effect (reduction of cell survival to less than 80% compared to control cells) [5]	increase in expression of collagen 3 ([6]; 0.1 mg/ml)	increase in expression of collagen 3 ([6]; 1 mg/ml)	MMP-1 expression in comparison to vehicle (DMSO), in words [7]	fold collagen 1 induction compared with control cells ([1]; 5 μM)
CCCCCCCCCCCCCCCCCC(=O)O [stearic acid]	did not induced collagen 1 expression									
CCCCCCCCC(O)CCCCCCCCC(=O)O (centres unmarked) [10-HSA, 10-hydroxystearic acid]	dose dependent induction of collagen 1	244%	significantly induced type III collagen synthesis in a dose-dependent manner	did not affect skin viability	−46%	did not show any cytotoxic effect	+49%	+57%	significantly and considerably reduced the expression of MMP-1	2.2 fold
